Assay results from patent US20260345619A1 (Principia Biopharma Inc., priority 2023, published 2026).

Legend:
[1] = Safety: adverse events (TEAEs, SAEs, AESIs), vital signs, labs; type: in vivo, human; conditions: for Participants with any TEAE / Participants with any TEAE leading to death / Participants with any TEAE related to IMP / Participants with any severe TEAE / Participants with any treatment emergent AESI / Participants with any treatment emergent SAE: safety population
Description: In terms of safety, […], adverse events of special interest (AESIs), vital signs, and laboratory analyses were to be reported.
Safety assessments included physical examinations, measurements of vital signs, electrocardiograms, clinical safety laboratory assessments, and pregnancy testing.
An AE is any untoward medical occurrence in a patient or clinical study participant, temporally associated with the use of study intervention, whether or not considered related to the study intervention.
An adverse event of special interest (AESI) is an AE (serious or nonserious) of scientific and medical concern specific to the Sponsor's product or program, for which ongoing monitoring and immediate notification by the Investigator to the Sponsor was required. Such events may have required further investigation in order to characterize and understand them. Adverse events of special interest may have been added, modified or removed during a study by protocol amendment. AESIs include the following: • Pregnancy of a participant entered in a study as well as pregnancy occurring in a female partner of a participant entered in a study with IMP. • Symptomatic overdose (serious or nonserious) with IMP. • Other project-specific AESI(s), including: severe infections including opportunistic infections; tuberculosis or initiation of medications for suspected tuberculosis; active COVID-19 infection as documented by a positive COVID-19 molecular test; major hemorrhagic events, including symptomatic bleeding in a critical area or organ such as the CNS, or intraocular bleeding, resulting in an SAE; serious adverse events (or non-serious adverse events with a severity level consistent with Grade 3 CTCAE of cytopenia; and atrial fibrillation.
The safety variables, including AEs, vital signs, physical examination, and laboratory values were to be summarized using descriptive statistics in each treatment group in the safety population.
All safety analyses were to be performed on the safety population. The baseline value is defined generally as the last available value before the first dose of IMP.
In general, AEs were to be analyzed in the following 3 categories: • Pre-treatment AEs: AEs that developed, worsened, or became serious during the pre-treatment period. • TEAEs: AEs that developed, worsened, or became serious during the treatment-emergent period. • Post-treatment AEs: AEs that developed, worsened, or became serious during the post-treatment period.

[2] = test system: B cell lymphocyte kinase (BLK); conditions: cited from earlier work
[3] = test system: 251 kinases sharing a common cysteine in their active site; conditions: cited from earlier work
[4] = healthy volunteers (N=51), even at supratherapeutic doses; cited from earlier work
BTK = conditions: over 24 h; cited from earlier work
other TEC family members = conditions: preclinical assays; cited from earlier work
[5] = test system: bone marrow tyrosine kinase on chromosome X (BMX); conditions: cited from earlier work
ERBB4 = conditions: cited from earlier work
[6] = healthy volunteers; cited from earlier work
[7] = Participant disposition: completion, discontinuation and reasons; type: in vivo, human
Description: Participants that met the criteria for a LOAC, at any time during the randomized IMP treatment phase, were to (be): • Discontinue early from IMP treatment, • Evaluated and receive treatment by the Investigator with standard of care according to standard medical practice. If practicable and safe, the participant was to undergo EOT Visit (Visit 14) assessment prior to the administration of rescue medications. • Resume their individual prescreening ICS/LABA background therapy and, • Followed for safety during a 4-week Post IMP Treatment Period.
Participants who discontinued IMP treatment prior to completing the 12-week IMP treatment (due to LOAC or due to early treatment discontinuation), were to be evaluated as soon as possible at the individual participant's EOT Visit and using procedures as planned for the EOT Visit at Week 12 (Visit 14). At their EOT visit, participants were to resume their prescreening ICS/LABA background therapy or appropriate therapy as needed per treating physician were to be resumed after the EOT study assessments had been performed and entered the 4-week safety follow-up period/Post IMP Treatment Period, concluding with the EOS Visit (Visit 16).

[8] = humans, oral; cited from earlier work
platelet aggregation = conditions: healthy volunteers or patients with ITP; cited from earlier work
[9] = ITP, cited from earlier work

## CC(C)(C=C(C#N)C(=O)N1CCC[C@@H](n2nc(-c3ccc(Oc4ccccc4)cc3F)c3c(N)ncnc32)C1)N1CCN(C2COC2)CC1 (mixture of isomers) [rilzabrutinib, (R)-2-[3-[4-amino-3-(2-fluoro-4-phenoxy-phenyl)pyrazolo[3,4-d]pyrimidin-1-yl]piperidine-1-carbonyl]-4-methyl-4-[4-(oxetan-3-yl)piperazin-1-yl]pent-2-enenitrile]
[1]; 400 mg BID and TID, asthma
  overall safety: generally safe, with no evidence of new safety concerns
[1]; 400 mg BID, N = 32
  Participants with any TEAE: 14 (43.8) n (%)
  Participants with any TEAE leading to death: 0 n (%)
  Participants with any TEAE related to IMP: 5 (15.6) n (%)
  Participants with any severe TEAE: 0 n (%)
  Participants with any treatment emergent AESI: 1 (3.1) n (%)
  Participants with any treatment emergent SAE: 2 (6.3) n (%)
[1]; 400 mg TID, N = 64
  Participants with any TEAE: 26 (40.6) n (%)
  Participants with any TEAE leading to death: 0 n (%)
  Participants with any TEAE related to IMP: 10 (15.6) n (%)
  Participants with any severe TEAE: 1 (1.6) n (%)
  Participants with any treatment emergent AESI: 3 (4.7) n (%)
  Participants with any treatment emergent SAE: 0 n (%)
[1]; combined BID and TID, N = 96
  Participants with any TEAE: 40 (41.7) n (%)
  Participants with any TEAE leading to death: 0 n (%)
  Participants with any TEAE related to IMP: 15 (15.6) n (%)
  Participants with any severe TEAE: 1 (1.0) n (%)
  Participants with any treatment emergent AESI: 4 (4.2) n (%)
  Participants with any treatment emergent SAE: 2 (2.1) n (%)
[2]
  IC50: 6.3 nM
[3]; 1 μM, panel of 251 kinases
  number of kinases inhibited (>90% inhibition): 6 kinases
[3]; in comparison to first and second generation BTKi
  cross-reactivity with other molecules: minimal cross-reactivity
[4]
  effect on cardiac repolarization: does not exert clinically relevant effects on cardiac repolarization
BTK
  sustained target occupancy: high sustained occupancy over 24 h
Other TEC family members
  binding to other TEC family members over time: decayed rapidly over time
[5]
  IC50: 1 nM
ERBB4
  IC50: 11 nM
[6]
  discontinuation due to an adverse event: no participants discontinued treatment due to an adverse event
  most commonly reported adverse events: gastrointestinal adverse events, including nausea/vomiting and diarrhea
  serious adverse events or deaths: No serious adverse events or deaths were reported
[7]; 400 mg BID (N = 32)
  Status at last contact: Dead: 0 n (%)
  permanent study intervention discontinuation: Adverse event: 2 (6.3) n (%)
  permanent study intervention discontinuation: Adverse event not related to COVID-19: 2 (6.3) n (%)
  permanent study intervention discontinuation: Adverse event related to COVID-19: 0 n (%)
  permanent study intervention discontinuation: Lack of efficacy: 0 n (%)
  permanent study intervention discontinuation: Loss of asthma control (LOAC): 8 (25.0) n (%)
  study discontinuation: Adverse event: 1 (3.1) n (%)
  study intervention withdrawal by subject: Adverse event: 1 (3.1) n (%)
[7]; 400 mg TID (N = 64)
  Status at last contact: Dead: 0 n (%)
  permanent study intervention discontinuation: Adverse event: 5 (7.8) n (%)
  permanent study intervention discontinuation: Adverse event not related to COVID-19: 2 (3.1) n (%)
  permanent study intervention discontinuation: Adverse event related to COVID-19: 3 (4.7) n (%)
  permanent study intervention discontinuation: Lack of efficacy: 1 (1.6) n (%)
  permanent study intervention discontinuation: Loss of asthma control (LOAC): 10 (15.6) n (%)
  study discontinuation: Adverse event: 0 n (%)
  study intervention withdrawal by subject: Adverse event: 2 (3.1) n (%)
[8]
  absorption: rapidly absorbed
  half-life: 3 to 4 h
  pharmacokinetic variability: variable pharmacokinetics
Platelet aggregation
  bleeding problems: does not lead to bleeding problems
[9]; Phase 1/2
  treatment-emergent serious adverse events (TESAEs): no treatment-emergent serious adverse events (TESAEs) observed
[9]; treatment for at least 12 weeks
  participants achieving the primary response endpoint: 50%
